In the supplement of paper PMC10307832:

Assays:
Assay in all cases: relative viability (nuclei count vs DMSO), 5 days (fraction); higher = more cells survive
[1] = compound: CN(C)CC1=CC(=CC=C1)N=C(C2=CC=CC=C2)C3=C(NC4=C3C=CC(=C4)C(=O)N(C)C)O + CC(=O)c1c(C)c2cnc(Nc3ccc(N4CCNCC4)cn3)nc2n(C2CCCC2)c1=O [Palbociclib] (partner 0.5 µM)
Summary of the method: (§1)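 A single step with final 0.05% Triton X-100, 1% formaldehyde and 1 ug/ml Hoechst fixed the cells and stained nuclei 5 days after treatment. Lung cancer cell lines in 1536-well plates had been treated by pin tool the day after seeding with one drug alone or a fixed anchor-drug dose plus five library-drug doses (not always all listed) in √10 steps, and nuclei were counted on 4× images. Relative viability is the ratio of nuclei in treated wells to nuclei in vehicle wells, taken as the median of duplicate plates.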

[2] = compound: CN(C)CC1=CC(=CC=C1)N=C(C2=CC=CC=C2)C3=C(NC4=C3C=CC(=C4)C(=O)N(C)C)O + CCNC(=O)c1noc(-c2cc(C(C)C)c(O)cc2O)c1-c1ccc(CN2CCOCC2)cc1 [Luminespib] (partner 0.01 µM)
Summary of the method: as §1

[3] = compound: CN(C)CC1=CC(=CC=C1)N=C(C2=CC=CC=C2)C3=C(NC4=C3C=CC(=C4)C(=O)N(C)C)O + COc1cccc2cc(-c3nc([C@H]4CC[C@H](C(=O)O)CC4)n4ncnc(N)c34)[nH]c12 [OSI-027] (partner 0.5 µM)
Summary of the method: as §1

[4] = compound: CN(C)CC1=CC(=CC=C1)N=C(C2=CC=CC=C2)C3=C(NC4=C3C=CC(=C4)C(=O)N(C)C)O + CS(=O)(=O)N1CCN(Cc2cc3nc(-c4cccc5[nH]ncc45)nc(N4CCOCC4)c3s2)CC1 [Pictilisib] (partner 1 µM)
Summary of the method: as §1

NCI-H727 was tested, and the relative viability ([1]; first compound 0.253 µM) was 0.617, the relative viability ([1]; first compound 0.8 µM) was 0.593 and the relative viability ([1]; first compound 2.53 µM) was 0.391. The relative viability ([1]; first compound 8 µM) was 0.74, the relative viability ([2]; first compound 0.08 µM) was 0.245 and the relative viability ([2]; first compound 0.253 µM) was 0.377. For the same cell line, the relative viability ([2]; first compound 0.8 µM) was 0.296, the relative viability ([2]; first compound 2.53 µM) was 0.543 and the relative viability ([2]; first compound 8 µM) was 0.354. It also gave a relative viability ([3]; first compound 0.08 µM) of 0.72, a relative viability ([3]; first compound 0.253 µM) of 0.581 and a relative viability ([3]; first compound 0.8 µM) of 0.59. For the same cell line, the relative viability ([3]; first compound 2.53 µM) was 0.573, the relative viability ([3]; first compound 8 µM) was 0.537 and the relative viability ([4]; first compound 0.08 µM) was 0.515. The relative viability ([4]; first compound 0.253 µM) was 0.32, the relative viability ([4]; first compound 0.8 µM) was 0.397 and the relative viability ([4]; first compound 2.53 µM) was 0.47. For the same cell line, the relative viability ([4]; first compound 8 µM) was 0.572.
In the case of LOU-NH91, the relative viability ([1]; first compound 0.08 µM) is reported as 0.57, the relative viability ([1]; first compound 0.253 µM) is reported as 0.53 and the relative viability ([1]; first compound 0.8 µM) is reported as 0.524. For the same cell line, the relative viability ([1]; first compound 2.53 µM) was 0.52, the relative viability ([1]; first compound 8 µM) was 0.598 and the relative viability ([2]; first compound 0.08 µM) was 0.308. It also gave a relative viability ([2]; first compound 0.253 µM) of 0.32, a relative viability ([2]; first compound 0.8 µM) of 0.358 and a relative viability ([2]; first compound 2.53 µM) of 0.337. For the same cell line, the relative viability ([2]; first compound 8 µM) was 0.322, the relative viability ([3]; first compound 0.08 µM) was 0.691 and the relative viability ([3]; first compound 0.253 µM) was 0.713. It also gave a relative viability ([3]; first compound 0.8 µM) of 0.561, a relative viability ([3]; first compound 2.53 µM) of 0.762 and a relative viability ([3]; first compound 8 µM) of 0.689. For the same cell line, the relative viability ([4]; first compound 0.08 µM) was 0.532, the relative viability ([4]; first compound 0.253 µM) was 0.512 and the relative viability ([4]; first compound 0.8 µM) was 0.481. It also gave a relative viability ([4]; first compound 2.53 µM) of 0.511 and a relative viability ([4]; first compound 8 µM) of 0.512.
LXF-289 showed a relative viability ([1]; first compound 0.08 µM) of 0.603, a relative viability ([1]; first compound 0.253 µM) of 0.544 and a relative viability ([1]; first compound 0.8 µM) of 0.606. For the same cell line, the relative viability ([1]; first compound 2.53 µM) was 0.547, the relative viability ([1]; first compound 8 µM) was 0.568 and the relative viability ([2]; first compound 0.08 µM) was 0.694. The relative viability ([2]; first compound 0.253 µM) was 0.675, the relative viability ([2]; first compound 0.8 µM) was 0.6 and the relative viability ([2]; first compound 2.53 µM) was 0.652. The relative viability ([2]; first compound 8 µM) was 0.623, the relative viability ([3]; first compound 0.08 µM) was 0.769 and the relative viability ([3]; first compound 0.253 µM) was 0.731. For the same cell line, the relative viability ([3]; first compound 0.8 µM) was 0.707, the relative viability ([3]; first compound 2.53 µM) was 0.713 and the relative viability ([3]; first compound 8 µM) was 0.639. For the same cell line, the relative viability ([4]; first compound 0.08 µM) was 0.778, the relative viability ([4]; first compound 0.253 µM) was 0.793 and the relative viability ([4]; first compound 0.8 µM) was 0.794. The relative viability ([4]; first compound 2.53 µM) was 0.706 and the relative viability ([4]; first compound 8 µM) was 0.731.
For NCI-H1666, the relative viability ([1]; first compound 0.08 µM) was 0.617, the relative viability ([1]; first compound 0.253 µM) was 0.652 and the relative viability ([1]; first compound 0.8 µM) was 0.684. For the same cell line, the relative viability ([1]; first compound 2.53 µM) was 0.681, the relative viability ([1]; first compound 8 µM) was 0.73 and the relative viability ([2]; first compound 0.08 µM) was 1.02. It also gave a relative viability ([2]; first compound 0.253 µM) of 1.02, a relative viability ([2]; first compound 0.8 µM) of 1.08 and a relative viability ([2]; first compound 2.53 µM) of 1.01. For the same cell line, the relative viability ([2]; first compound 8 µM) was 1.02, the relative viability ([3]; first compound 0.08 µM) was 0.858 and the relative viability ([3]; first compound 0.253 µM) was 0.851. It also gave a relative viability ([3]; first compound 0.8 µM) of 0.889, a relative viability ([3]; first compound 2.53 µM) of 0.831 and a relative viability ([3]; first compound 8 µM) of 1.05. It also gave a relative viability ([4]; first compound 0.08 µM) of 0.507, a relative viability ([4]; first compound 0.253 µM) of 0.528 and a relative viability ([4]; first compound 0.8 µM) of 0.4. It also gave a relative viability ([4]; first compound 2.53 µM) of 0.486 and a relative viability ([4]; first compound 8 µM) of 0.545.
With NCI-H441 the relative viability ([1]; first compound 0.08 µM) was 0.217, the relative viability ([1]; first compound 0.253 µM) was 0.231 and the relative viability ([1]; first compound 0.8 µM) was 0.2. It also gave a relative viability ([1]; first compound 2.53 µM) of 0.198, a relative viability ([1]; first compound 8 µM) of 0.247 and a relative viability ([2]; first compound 0.08 µM) of 0.303. The relative viability ([2]; first compound 0.253 µM) was 0.304, the relative viability ([2]; first compound 0.8 µM) was 0.364 and the relative viability ([2]; first compound 2.53 µM) was 0.381. It also gave a relative viability ([2]; first compound 8 µM) of 0.354, a relative viability ([3]; first compound 0.08 µM) of 0.522 and a relative viability ([3]; first compound 0.253 µM) of 0.703. The relative viability ([3]; first compound 0.8 µM) was 0.74, the relative viability ([3]; first compound 2.53 µM) was 0.568 and the relative viability ([3]; first compound 8 µM) was 0.39. For the same cell line, the relative viability ([4]; first compound 0.08 µM) was 0.451, the relative viability ([4]; first compound 0.253 µM) was 0.471 and the relative viability ([4]; first compound 0.8 µM) was 0.484. For the same cell line, the relative viability ([4]; first compound 2.53 µM) was 0.481 and the relative viability ([4]; first compound 8 µM) was 0.335.
For SK-LU-1, the relative viability ([1]; first compound 0.08 µM) was 0.335, the relative viability ([1]; first compound 0.253 µM) was 0.363 and the relative viability ([1]; first compound 0.8 µM) was 0.34. It also gave a relative viability ([1]; first compound 2.53 µM) of 0.362, a relative viability ([1]; first compound 8 µM) of 0.369 and a relative viability ([2]; first compound 0.08 µM) of 0.226. It also gave a relative viability ([2]; first compound 0.253 µM) of 0.191, a relative viability ([2]; first compound 0.8 µM) of 0.21 and a relative viability ([2]; first compound 2.53 µM) of 0.188. It also gave a relative viability ([2]; first compound 8 µM) of 0.225, a relative viability ([3]; first compound 0.08 µM) of 0.373 and a relative viability ([3]; first compound 0.253 µM) of 0.366. It also gave a relative viability ([3]; first compound 0.8 µM) of 0.429, a relative viability ([3]; first compound 2.53 µM) of 0.346 and a relative viability ([3]; first compound 8 µM) of 0.244. It also gave a relative viability ([4]; first compound 0.08 µM) of 0.575, a relative viability ([4]; first compound 0.253 µM) of 0.548 and a relative viability ([4]; first compound 0.8 µM) of 0.566. The relative viability ([4]; first compound 2.53 µM) was 0.538 and the relative viability ([4]; first compound 8 µM) was 0.477.
ChaGo-K-1 showed a relative viability ([1]; first compound 0.08 µM) of 0.918, a relative viability ([1]; first compound 0.253 µM) of 0.905 and a relative viability ([1]; first compound 0.8 µM) of 0.971. It also gave a relative viability ([1]; first compound 2.53 µM) of 0.94, a relative viability ([1]; first compound 8 µM) of 0.839 and a relative viability ([2]; first compound 0.08 µM) of 0.688. For the same cell line, the relative viability ([2]; first compound 0.253 µM) was 0.612, the relative viability ([2]; first compound 0.8 µM) was 0.668 and the relative viability ([2]; first compound 2.53 µM) was 0.529. For the same cell line, the relative viability ([2]; first compound 8 µM) was 0.598, the relative viability ([3]; first compound 0.08 µM) was 0.584 and the relative viability ([3]; first compound 0.253 µM) was 0.582. It also gave a relative viability ([3]; first compound 0.8 µM) of 0.609, a relative viability ([3]; first compound 2.53 µM) of 0.588 and a relative viability ([3]; first compound 8 µM) of 0.527. For the same cell line, the relative viability ([4]; first compound 0.08 µM) was 0.814, the relative viability ([4]; first compound 0.253 µM) was 1.03 and the relative viability ([4]; first compound 0.8 µM) was 0.967. It also gave a relative viability ([4]; first compound 8 µM) of 0.879.
In the case of NCI-H2228, the relative viability ([1]; first compound 0.08 µM) is reported as 0.825, the relative viability ([1]; first compound 0.253 µM) is reported as 0.602 and the relative viability ([1]; first compound 0.8 µM) is reported as 0.715. The relative viability ([1]; first compound 2.53 µM) was 0.673, the relative viability ([1]; first compound 8 µM) was 0.77 and the relative viability ([2]; first compound 0.08 µM) was 0.134. For the same cell line, the relative viability ([2]; first compound 0.253 µM) was 0.152, the relative viability ([2]; first compound 0.8 µM) was 0.142 and the relative viability ([2]; first compound 2.53 µM) was 0.164. For the same cell line, the relative viability ([2]; first compound 8 µM) was 0.137, the relative viability ([3]; first compound 0.08 µM) was 0.638 and the relative viability ([3]; first compound 0.253 µM) was 0.736. For the same cell line, the relative viability ([3]; first compound 0.8 µM) was 0.615, the relative viability ([3]; first compound 2.53 µM) was 0.492 and the relative viability ([3]; first compound 8 µM) was 0.419. For the same cell line, the relative viability ([4]; first compound 0.08 µM) was 0.566, the relative viability ([4]; first compound 0.253 µM) was 0.411 and the relative viability ([4]; first compound 0.8 µM) was 0.545. It also gave a relative viability ([4]; first compound 2.53 µM) of 0.395 and a relative viability ([4]; first compound 8 µM) of 0.349.
